Measurements taken from patent US9932353B2, “Imidazopyrimidine macrocycles as inhibitors of human immunodeficiency virus replication” (VIIV HEALTHCARE UK (NO. 5) LIMITED, priority 2014, dated 2018).
Read-outs that look alike come from different tables or passages of the source.

Test system: recombinant NL-RLuc virus (HIV NL4-3 with Renilla Luciferase) in MT-2 cells
Assay: Inhibition of HIV replication (NL-RLuc virus in MT-2 cells, luciferase readout)
Type: cell-based
Description: Inhibition of HIV Replication:
A recombinant NL-RLuc proviral clone was constructed in which a section of the nef gene from NL4-3 was replaced with the Renilla Luciferase gene. This virus is fully infectious and can undergo multiple cycles of replication in cell culture. In addition, the luciferous reporter provides a simple and easy method for quantitating the extent of virus growth and consequently, the antiviral activity of test compounds. The plasmid pNLRLuc contains the proviral NL-Rluc DNA cloned into pUC18 at the PvuII site. The NL-RLuc virus was prepared by transfection of 293T cells with the plasmid pNLRLuc. Transfections were performed using the LipofectAMINE PLUS kit from Invitrogen (Carlsbad, Calif.) according to the manufacturer and the virus generated was titered in MT-2 cells. For susceptibility analyses, the titrated virus was used to infect MT-2 cells in the presence of compound, and after 5 days of incubation, cells were processed and quantitated for virus growth by the amount of expressed luciferase. Assay media was RPMI 1640 supplemented with 10% heat inactivated fetal bovine serum (FBS), 100 units/ml penicillin G/100 units/ml streptomycin, 10 mM HEPES buffer pH 7.55 and 2 mM L-glutamine. The results from at least 2 experiments were used to calculate the EC50 values. Luciferase was quantitated using the Dual Luciferase kit from Promega (Madison, Wis.). Susceptibility of viruses to compounds was determined by incubation in the presence of serial dilutions of the compound. The 50% effective concentration (EC50) was calculated by using the exponential form of the median effect equation where (Fa)=1/[1+(ED50/drug conc.)^m] (Johnson V A, Byington R T. Infectivity Assay. In Techniques in HIV Research. ed. Aldovini A, Walker B D. 71-76. New York: Stockton Press. 1990).

[1] = NL-RLuc virus, MT-2 cells, 5 days of incubation, 10% FBS, luciferase, read-out: EC50

Row | Compound | EC50 [1] | EC50 (MT2, 120 h)
1 | Cc1nc2nc3cn2c(c1[C@H](OC(C)(C)C)C(=O)O)N1CCC(C)(CC1)OCCCCC(C)Oc1ccc(F)cc1-c1cccc-3c1 (stereo partly drawn) [Example 2, (2S)-2-(tert-butoxy)-2-[(22S/R)-17-fluoro-4,22,28-trimethyl-21,27-dioxa-1,5,7,34-tetraazahexacyclo[26.2.2.1^6,^9.1^10,^14.0^2,^7.0^15,^20]tetratriaconta-2,4,6(34),8,10(33),11,13,15(20),16,18-decaen-3-yl]acetic Acid] | 8 nM | –
2 | (2S)-2-(tert-butoxy)-2-[(22S/R)-17-fluoro-4,22,28-trimethyl-21,27-dioxa-1,5,7,34-tetraazahexacyclo[26.2.2.1^6,^9.1^10,^14.0^2,^7.0^15,^20]tetratriaconta-2,4,6(34),8,10(33),11,13,15(20),16,18-decaen-3-yl]acetic Acid [Example 3] | 77 nM | –
3 | Cc1ccc2c(c1)-c1cccc(c1)-c1cn3c(c([C@H](OC(C)(C)C)C(=O)O)c(C)nc3n1)N1CCC(C)(CC1)OCCCC[C@H](C)O2 [Example 1, (2S)-2-(tert-Butoxy)-2-[(22S)-4,17,22,28-tetramethyl-21,27-dioxa-1,5,7,34-tetraazahexacyclo[26.2.2.1^6,^9.1^10,^14.0^2,^7.0^15,^20]tetratriaconta-2,4,6(34),8,10(33),11,13,15(20),16,18-decaen-3-yl]acetic Acid] | – | 8 nM
